From the NIST ThermoML archive (doi:10.1016/j.fluid.2011.12.008)
Numbers after ± are expanded uncertainties.

Conditions: 298.15 K; 101.33 kPa; Liquid; Vibrating tube method

Row | Compound | mass density [kg/m3]
1 | CCCCCC[n+]1ccn(C)c1.O=S(=O)([N-]S(=O)(=O)C(F)(F)F)C(F)(F)F | 1371.6 ± 0.7
2 | CCCCCC[N+]1(C)CCCC1.O=S(=O)([N-]S(=O)(=O)C(F)(F)F)C(F)(F)F | 1336 ± 1.6
3 | CCCC[N+]1(C)CCCC1.O=S(=O)([N-]S(=O)(=O)C(F)(F)F)C(F)(F)F | 1394.3 ± 0.6
4 | CCC[N+](C)(C)CC.O=S(=O)([N-]S(=O)(=O)C(F)(F)F)C(F)(F)F | 1403.5 ± 0.6
